Experimental data published in patent publication US20010018452A1 (published 2001).

For `CNC(=O)C(=NOC)c1cc(C)c(C)cc1C(ON)=C(C)c1cccc(C(F)(F)F)c1`, the melting point was 129 to 134 °C.
Work on `CON=C(C(=O)OC)c1cc(C)c(C)cc1COc1ccccc1C` yielded a melting point of 82 to 84 °C.
